In assay [1] the test system is cell-free protein synthesis. Description: titration of analyte against an unregulated reporter plasmid (pT7-sfGFP) in a cell-free gene expression reaction. Type of assay: biochemical, E. coli. The settings on record: 100 μM CuSO4; transcription and translation in vitro. From the text: FIG. 4A-D. FIG. 4 illustrates various aspects of the biosensors of the present disclosure. (A) The “enriched” extract that contains the allosteric transcription factor can be mixed against a “blank” unenriched extract to modulate the concentration of the transcription factor in the reaction. (B) For tighter control and specificity of a cascaded system, if T7 RNA polymerase is used to drive expression of the allosteric transcription factor in the host strain of extract, an engineered variant of T7 RNAP may be used as the output of the regulated promoter. Exemplary T7 RNAP mutants are illustrated. […] The E. coli RNAP is used to express four T7 RNAP variants from a mock sensor plasmid (5 nM) that contains the consensus E. coli promoter J23119. The corresponding reporter plasmid is added at 5 nM. The kinetics of T7 RNAP synthesis lead to a time delay of about 20-30 minutes relative to a reaction that uses purified WT T7 RNAP. […] Reporter yields are from triplicates of four-hour sfGFP yields on a plate reader at 30° C. […]
A series of tuning experiments are next used to optimize the sensor. […] This experiment is an isothermal cell-free gene expression reaction held at 30° C. in a plate reader for ˜4 hours using an established set of physiochemical conditions to maximize protein production in general. […]

The subject of a further assay is lead sensor. Nature of the assay: crosstalk between four metal-sensing aTFs using cell-free response. Format: biochemical. The settings on record: heatmap. From the text:
FIG. 21. Design of mitigating cross-talk of sensors. Experimental measurement of crosstalk between four metal-sensing aTFs using cell-free response. Heatmap is colored more brightly to indicate stronger fluorescent signal.

Structures are written as SMILES.

On to `O=S(=O)([O-])[O-].[Cu+2]` [CuSO4], for which the “effect on cell-free protein synthesis” value in assay [1] is listed as “shuts down cell-free protein synthesis”.

In the case of `[Cd]` [cadmium], the “crosstalk (fluorescent signal) of metal-sensing aTF sensor with non-cognate metal” value in the assay with lead sensor is given as “crosstalk for the lead sensor with cadmium”.
